Patent US4352803A, “Novel naphthyridine derivatives, intermediates thereof, processes for preparation thereof, and use thereof” (Dainippon Pharmaceutical Co., Ltd., priority 1978, dated 1982)
Values after ≈ are worked out from the molar mass of the structure shown. Structures can show the parent of a compound that is named as a salt. Where two headings read alike, the source gives them in different places.

Columns and labels:
[1] = tested on: Staphylococcus aureus 209P JC-1; assay: In vitro antibacterial activity (MIC), Staphylococcus aureus 209P JC-1; assay type: cell-based; details: Staphylococcus aureus 209P JC-1; read-out: minimum inhibitory concentration (MIC)
Source text: (§1) (MIC) (μg/ml) Method; Chemotherapy, 22(6), 1126 (1974)

[2] = tested on: Staphylococcus aureus No. 50774; assay: In vitro antibacterial activity (MIC), Staphylococcus aureus No. 50774; assay type: cell-based; details: Staphylococcus aureus No. 50774; read-out: minimum inhibitory concentration (MIC)
Source text: as §1

[3] = tested on: Streptococcus faecalis P-2473; assay: In vitro antibacterial activity (MIC), Streptococcus faecalis P-2473; assay type: cell-based; details: Enterococcus faecalis, P2473; Streptococcus faecalis P-2473; read-out: minimum inhibitory concentration (MIC)
Source text: as §1

[4] = tested on: Streptococcus pyogenes 65A; assay: In vitro antibacterial activity (MIC), Streptococcus pyogenes 65A; assay type: cell-based; details: Streptococcus pyogenes 65A; read-out: minimum inhibitory concentration (MIC)
Source text: as §1

[5] = tested on: Corynebacterium pyogenes C-21; assay: In vitro antibacterial activity (MIC), Corynebacterium pyogenes C-21; assay type: cell-based; details: Rhodococcus (subgen. Prescottella) equi, C21; Corynebacterium pyogenes C-21; read-out: minimum inhibitory concentration (MIC)
Source text: as §1

[6] = tested on: Escherichia coli NIHJ JC-2; assay: In vitro antibacterial activity (MIC), Escherichia coli NIHJ JC-2; assay type: cell-based
Source text: as §1

[7] = tested on: Escherichia coli P-5101; assay: In vitro antibacterial activity (MIC), Escherichia coli P-5101; assay type: cell-based
Source text: as §1

[8] = tested on: Escherichia coli P-140a; assay: In vitro antibacterial activity (MIC), Escherichia coli P-140a; assay type: cell-based; details: P140A; Escherichia coli P-140a; read-out: minimum inhibitory concentration (MIC)
Source text: as §1

[9] = tested on: Salmonella typhimurium 8-9; assay: In vitro antibacterial activity (MIC), Salmonella typhimurium 8-9; assay type: cell-based; details: Salmonella enterica; Salmonella typhimurium 8-9; read-out: minimum inhibitory concentration (MIC)
Source text: as §1

[10] = tested on: Salmonella enteritidis No. 1891; assay: In vitro antibacterial activity (MIC), Salmonella enteritidis No. 1891; assay type: cell-based; details: Salmonella enterica; Salmonella enteritidis No. 1891; read-out: minimum inhibitory concentration (MIC)
Source text: as §1

[11] = tested on: Shigella flexneri 2a; assay: In vitro antibacterial activity (MIC), Shigella flexneri 2a; assay type: cell-based; details: read-out: minimum inhibitory concentration (MIC)
Source text: as §1

[12] = tested on: Shigella flexneri 4a P-330; assay: In vitro antibacterial activity (MIC), Shigella flexneri 4a P-330; assay type: cell-based; details: 4AP330, read-out: minimum inhibitory concentration (MIC)
Source text: as §1

[13] = tested on: Klebsiella pneumoniae No. 13; assay: In vitro antibacterial activity (MIC), Klebsiella pneumoniae No. 13; assay type: cell-based; details: Klebsiella pneumoniae No. 13; read-out: minimum inhibitory concentration (MIC)
Source text: as §1

[14] = tested on: Enterobacter cloacae P-2540; assay: In vitro antibacterial activity (MIC), Enterobacter cloacae P-2540; assay type: cell-based; details: P2540; Enterobacter cloacae P-2540; read-out: minimum inhibitory concentration (MIC)
Source text: as §1

[15] = tested on: Pseudomonas aeruginosa Tsuchijima; assay: In vitro antibacterial activity (MIC), Pseudomonas aeruginosa Tsuchijima; assay type: cell-based; details: read-out: minimum inhibitory concentration (MIC)
Source text: as §1

[16] = tested on: Pseudomonas aeruginosa No. 12; assay: In vitro antibacterial activity (MIC), Pseudomonas aeruginosa No. 12; assay type: cell-based; details: Pseudomonas aeruginosa No. 12; read-out: minimum inhibitory concentration (MIC)
Source text: as §1

[17] = tested on: Serratia marcescens IFC 3736; assay: In vitro antibacterial activity (MIC), Serratia marcescens IFC 3736; assay type: cell-based; details: IFC3736; Serratia marcescens IFC 3736; read-out: minimum inhibitory concentration (MIC)
Source text: as §1

[18] = tested on: Proteus morganii Kono; assay: In vitro antibacterial activity (MIC), Proteus morganii Kono; assay type: cell-based; details: Morganella morganii; Proteus morganii Kono; read-out: minimum inhibitory concentration (MIC)
Source text: as §1

[19] = tested on: Proteus mirabilis P-2381; assay: In vitro antibacterial activity (MIC), Proteus mirabilis P-2381; assay type: cell-based; details: P2381; Proteus mirabilis P-2381; read-out: minimum inhibitory concentration (MIC)
Source text: as §1

[20] = in vivo; details: mouse, in vivo, po
Method: The number of dead mice was counted after 7 days, and the value of median lethal dose (LD50, mg/kg) was calculated in accordance with the Behrens-Kaerber method.

[21] = tested on: Escherichia coli P-5101; assay: in vivo efficacy against systemic infection in mice, Escherichia coli P-5101; details: P5101, in Mus musculus, po, 168 h
Method: Male mice (ddY) weighing about 20 g
Intraperitoneal infection with (about
9 × 10^6 cells/mouse) of a bacterial
(§2) suspension in trypto-soy broth with 4% mucin.
(§3) Twice, about 5 minutes and 6 hours after infection.

[22] = tested on: Pseudomonas aeruginosa No. 12; assay: in vivo efficacy against systemic infection in mice, Pseudomonas aeruginosa No. 12; details: NO.12, in Mus musculus, po, 168 h
Method: Male mice (ddY) weighing about 20 g
(3) Pseudomonas aeruginosa No. 12;
(about 5 × 10^3 cells/mouse) of a bacterial
as §2, §3
The numerals in the table show ED50 (mg/kg). ED50 values were

[23] = tested on: Staphylococcus aureus No. 50774; assay: in vivo efficacy against systemic infection in mice, Staphylococcus aureus No. 50774; details: NO.50774, in Mus musculus, po, 336 h
Method: Male mice (ddY) weighing about 20 g
Intravenous infection with (about
5 × 10^8 cells/mouse) of a bacterial
as §3

Compound | MIC [1] [µg/mL] | MIC [2] [µg/mL] | MIC [3] [µg/mL] | MIC [4] [µg/mL] | MIC [5] [µg/mL] | MIC [8] [µg/mL] | MIC [9] [µg/mL] | MIC [10] [µg/mL] | MIC [11] [µg/mL] | MIC [12] [µg/mL] | MIC [13] [µg/mL] | MIC [14] [µg/mL] | MIC [16] [µg/mL] | MIC [17] [µg/mL] | MIC [18] [µg/mL] | MIC [19] [µg/mL] | ED50 [21] [mg/kg] | ED50 [22] [mg/kg] | ED50 [23] [mg/kg] | further results
C=Cn1cc(C(=O)O)c(=O)c2cc(Cl)c(N3CCNCC3)nc21 [Compound 4, 6-Chloro-1,4-dihydro-4-oxo-7-(1-piperazinyl)-1-vinyl-1,8-naphthyridine-3-carboxylic acid] | 3.13 (≈ 9.35 µM) | 6.25 (≈ 18.7 µM) | 12.5 (≈ 37.3 µM) | 6.25 (≈ 18.7 µM) | 6.25 (≈ 18.7 µM) | 0.1 (≈ 0.299 µM) | 0.2 (≈ 0.597 µM) | 0.2 (≈ 0.597 µM) | 0.2 (≈ 0.597 µM) | 0.2 (≈ 0.597 µM) | 0.39 (≈ 1.17 µM) | 0.2 (≈ 0.597 µM) | 1.56 (≈ 4.66 µM) | 0.78 (≈ 2.33 µM) | 0.2 (≈ 0.597 µM) | 0.78 (≈ 2.33 µM) | 4.8 | 18.5 | ~100 | MIC ([6]; NIHJJC2, Escherichia coli NIHJ JC-2, read-out: minimum inhibitory concentration (MIC)): 0.2 µg/mL (≈ 0.597 µM); MIC ([7]; P5101, Escherichia coli P-5101, read-out: minimum inhibitory concentration (MIC)): 0.1 µg/mL (≈ 0.299 µM); MIC ([15]; Pseudomonas aeruginosa Tsuchijima): 1.56 µg/mL (≈ 4.66 µM); LD50 at 168 h [20]: > 2000 mg/kg
CC1(C)S[C@@H]2[C@H](NC(=O)C(C(=O)Oc3ccc4c(c3)CCC4)c3ccccc3)C(=O)N2[C@H]1C(=O)O (stereo partly drawn) [G, α-(5-Indanyloxycarbonyl)benzylpenicillin sodium salt] | 0.39 | 0.78 | 50 | 0.2 | 3.13 | 50 | 0.78 | 0.78 | 12.5 | 6.25 | > 200 | 3.13 | 50 | 3.13 | 0.78 | 0.78 | 100 | 202 | 10 to 40 | MIC ([6]; Escherichia coli, NIHJJC2, read-out: minimum inhibitory concentration (MIC)): 6.25 µg/mL; MIC ([7]; Escherichia coli, P5101, read-out: minimum inhibitory concentration (MIC)): 6.25 µg/mL; MIC ([15]; Pseudomonas aeruginosa): 6.25 µg/mL
